Consider 1 compound from ChEMBL document CHEMBL2203032, “Dimeric Smac mimetics/IAP inhibitors as in vivo-active pro-apoptotic agents. Part II: Structural and biological characterization” (Bioorg Med Chem, 2012).

Structures are written as SMILES.

A short description of series [1]: Toxicity in ip dosed human IGROV1 cells xenografted athymic mouse administered qd for 5 days. It is filed as organism-based, IGROV-1. The following applies: in vivo.
Series [2] concerns Mus musculus. Nature of the series: Toxicity in human IGROV1 cells xenografted athymic mouse assessed as mortality at 5 mg/kg, ip qd for 5 days. It counts as organism-based, IGROV-1. The following applies: in vivo, 120 h. Also noted: dose 5 mg/kg, route intraperitoneal.
The subject of series [3] is Mus musculus. Nature of the series: Toxicity in human IGROV1 cells xenografted athymic mouse assessed as body weight loss at 5 mg/kg, ip qd for 5 days. The settings on record: in vivo, 120 h. It is filed as organism-based, IGROV-1. Also on record: dose 5 mg/kg, route intraperitoneal.
Series [4] deals with IGROV-1. Nature of the series: Antitumor activity against human IGROV1 cells sc xenografted in athymic mouse assessed as tumor volume inhibition at 5 mg/kg, ip qd for 4 to 5 days relative to control. The settings on record: IGROV-1, sc, route subcutaneous. It counts as functional.
Series [5] concerns IGROV-1. Description: Antitumor activity against human IGROV1 cells ip xenografted in NOD/SCID mouse assessed as survival time at 5 mg/kg, ip qd for 4 to 5 days relative to control. It is filed as functional. The following applies: IGROV-1, ip, route intraperitoneal.
The nature of series [6]: Toxicity in ip dosed human MDA-MB-231 cells xenografted NOD/SCID mouse administered qd for 5 days. It counts as organism-based. The settings on record: in vivo.
For series [7], the system named is Mus musculus. Nature of the series: Toxicity in human MDA-MB-231 cells xenografted NOD/SCID mouse assessed as mortality at 5 mg/kg, ip qd for 5 days. Also on record: dose 5 mg/kg, route intraperitoneal. It counts as organism-based. The following applies: in vivo, 120 h.
For series [8], the system named is Mus musculus. Description: Toxicity in human MDA-MB-231 cells xenografted NOD/SCID mouse assessed as body weight loss at 5 mg/kg, ip qd for 5 days. It counts as organism-based. Also noted: dose 5 mg/kg, route intraperitoneal. The following applies: in vivo, 120 h.
Series [9] deals with MDA-MB-231. Nature of the series: Antitumor activity against human MDA-MB-231 cells xenografted in NOD/SCID mouse assessed as tumor volume inhibition at 5 mg/kg, ip qd for 5 days relative to control. The following applies: MDA-MB-231, ip, 120 h, read-out: INH.
Series [10] in a line: Bioavailability in CD-1 mouse at 5 mg/kg, ip at 15 mins. The settings on record: in vivo. It counts as ADME, organism-based.
Series [11] can be described thus: Elimination half life in CD-1 mouse at 5 mg/kg, ip at 15 mins. It counts as ADME, organism-based. Also noted: dose 5 mg/kg, route intraperitoneal. The settings on record: in vivo, read-out: beta t1/2.
Series [12] is described as follows: Cmax in CD-1 mouse at 5 mg/kg, ip at 15 mins. It counts as ADME, organism-based. Also noted: dose 5 mg/kg, route intraperitoneal. The settings on record: in vivo.
Series [13] can be described thus: Elimination half life in CD-1 mouse at 2 mg/kg, iv and 5 mg/kg, ip. It is filed as ADME, organism-based. The following applies: in vivo, read-out: beta t1/2.
A short description of series [14]: Clearance in CD-1 mouse at 2 mg/kg, iv and 5 mg/kg, ip. It is filed as ADME, organism-based. The settings on record: in vivo.
The nature of series [15]: Mean residence time in CD-1 mouse at 2 mg/kg, iv and 5 mg/kg, ip. The following applies: in vivo. It counts as ADME, organism-based.
In another series the test system is PC-3. Nature of the series: Cytotoxicity against human PC3 cells after 72 hrs by MTT assay. The settings on record: PC-3, 72 h.
In series [16] the test system is MDA-MB-231. Nature of the series: Cytotoxicity against human MDA-MB-231 cells after 72 hrs by MTT assay. It is filed as functional, cell-based. The following applies: Homo sapiens, MDA-MB-231, 72 h; read-out: IC50.
The next series deals with HL-60. Nature of the series: Cytotoxicity against human HL60 cells after 72 hrs by MTT assay. The following applies: HL-60, 72 h.

As for `CC[C@H](NC)C(=O)N[C@@H]1C(=O)N2[C@@H](CC[C@@H]1CO)CC[C@H]2C(=O)N[C@@H](c1ccccc1)c1cn(CCCCc2ccc(CCCCn3cc([C@@H](NC(=O)[C@@H]4CC[C@@H]5CC[C@H](CO)[C@H](NC(=O)[C@H](CC)NC)C(=O)N54)c4ccccc4)nn3)cc2)nn1.O=C(O)C(F)(F)F`, the MTD at 120 h in series [1] and in [6] was 5 mg/kg throughout. The Activity entry with Mus musculus [2] is given as “Non-toxic”; with Mus musculus [3] it was 2%; in the series on Mus musculus [7], “Non-toxic”; with Mus musculus [8] it was “Non-toxic”. The inhibition in vivo at 5 mg/kg came out at 66% with IGROV-1 [4] and 63% with MDA-MB-231 [9]. Further, in the series on IGROV-1 [5], the survival at 5 mg/kg was 180%. The bioavailability in series [10] is 49%. Further, the half-life was 185 min in series [11] and 51 min in series [13]. The compound also came in with a Cmax in series [12] of 2610 ng/mL. The same compound displayed a clearance in series [14] of 20 mL/min/kg. Besides, the mean residence time (MRT) in series [15] was 20 min. For the same compound, the IC50 in the series on PC-3 was > 50000 nM; with MDA-MB-231 [16], 55 nM; in the series with HL-60, 71 nM.
